In article doi:10.1101/2023.03.24.534094v2 (biorxiv, 2023):
Where two headings read alike, the source gives them in different places.

Tests used:
Assay in all cases: biochemical
NDR2 = NDR2 (Homo sapiens, UniProt Q9Y2H1)
PCTAIRE1 = PCTAIRE1 (Homo sapiens, UniProt Q00536)
OSR1 = OSR1 (Homo sapiens, UniProt O95747)
GAK = target: T1, GAK (Homo sapiens, UniProt O14976)
T1 sequence (O14976 1-1311): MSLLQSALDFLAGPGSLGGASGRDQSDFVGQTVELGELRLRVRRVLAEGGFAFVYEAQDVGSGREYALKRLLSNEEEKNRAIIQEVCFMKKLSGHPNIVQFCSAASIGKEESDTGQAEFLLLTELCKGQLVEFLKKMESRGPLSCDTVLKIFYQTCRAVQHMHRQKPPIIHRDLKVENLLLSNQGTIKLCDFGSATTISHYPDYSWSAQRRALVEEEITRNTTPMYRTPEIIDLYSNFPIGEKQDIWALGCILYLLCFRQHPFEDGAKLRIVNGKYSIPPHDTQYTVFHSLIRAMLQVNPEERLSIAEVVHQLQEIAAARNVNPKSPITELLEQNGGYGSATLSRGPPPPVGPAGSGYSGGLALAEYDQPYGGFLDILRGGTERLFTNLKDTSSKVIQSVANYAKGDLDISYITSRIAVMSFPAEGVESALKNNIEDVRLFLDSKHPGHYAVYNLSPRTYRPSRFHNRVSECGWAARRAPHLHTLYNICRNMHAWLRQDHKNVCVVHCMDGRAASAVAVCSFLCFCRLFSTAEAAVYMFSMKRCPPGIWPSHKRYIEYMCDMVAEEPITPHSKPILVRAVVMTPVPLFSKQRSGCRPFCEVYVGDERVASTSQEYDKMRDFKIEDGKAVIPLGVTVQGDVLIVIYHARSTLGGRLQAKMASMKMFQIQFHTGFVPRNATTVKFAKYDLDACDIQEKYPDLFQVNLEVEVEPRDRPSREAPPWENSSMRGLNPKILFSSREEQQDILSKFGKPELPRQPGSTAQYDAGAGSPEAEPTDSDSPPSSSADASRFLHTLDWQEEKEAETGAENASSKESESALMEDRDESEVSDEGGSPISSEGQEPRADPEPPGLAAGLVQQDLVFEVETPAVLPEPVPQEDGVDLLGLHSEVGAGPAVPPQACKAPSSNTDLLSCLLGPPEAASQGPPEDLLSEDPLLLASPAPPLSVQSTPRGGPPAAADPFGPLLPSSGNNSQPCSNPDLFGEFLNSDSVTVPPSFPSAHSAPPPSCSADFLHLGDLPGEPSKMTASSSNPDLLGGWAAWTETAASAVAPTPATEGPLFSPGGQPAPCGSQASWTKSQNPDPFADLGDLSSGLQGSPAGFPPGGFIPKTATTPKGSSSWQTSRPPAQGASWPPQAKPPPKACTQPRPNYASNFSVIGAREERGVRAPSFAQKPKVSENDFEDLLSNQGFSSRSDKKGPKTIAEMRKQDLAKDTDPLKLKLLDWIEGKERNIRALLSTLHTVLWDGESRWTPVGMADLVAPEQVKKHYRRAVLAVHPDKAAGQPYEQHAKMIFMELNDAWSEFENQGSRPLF

BRPF1 = target: T2, BRPF1 (Homo sapiens, UniProt P55201)
T2 sequence (P55201 1-1214): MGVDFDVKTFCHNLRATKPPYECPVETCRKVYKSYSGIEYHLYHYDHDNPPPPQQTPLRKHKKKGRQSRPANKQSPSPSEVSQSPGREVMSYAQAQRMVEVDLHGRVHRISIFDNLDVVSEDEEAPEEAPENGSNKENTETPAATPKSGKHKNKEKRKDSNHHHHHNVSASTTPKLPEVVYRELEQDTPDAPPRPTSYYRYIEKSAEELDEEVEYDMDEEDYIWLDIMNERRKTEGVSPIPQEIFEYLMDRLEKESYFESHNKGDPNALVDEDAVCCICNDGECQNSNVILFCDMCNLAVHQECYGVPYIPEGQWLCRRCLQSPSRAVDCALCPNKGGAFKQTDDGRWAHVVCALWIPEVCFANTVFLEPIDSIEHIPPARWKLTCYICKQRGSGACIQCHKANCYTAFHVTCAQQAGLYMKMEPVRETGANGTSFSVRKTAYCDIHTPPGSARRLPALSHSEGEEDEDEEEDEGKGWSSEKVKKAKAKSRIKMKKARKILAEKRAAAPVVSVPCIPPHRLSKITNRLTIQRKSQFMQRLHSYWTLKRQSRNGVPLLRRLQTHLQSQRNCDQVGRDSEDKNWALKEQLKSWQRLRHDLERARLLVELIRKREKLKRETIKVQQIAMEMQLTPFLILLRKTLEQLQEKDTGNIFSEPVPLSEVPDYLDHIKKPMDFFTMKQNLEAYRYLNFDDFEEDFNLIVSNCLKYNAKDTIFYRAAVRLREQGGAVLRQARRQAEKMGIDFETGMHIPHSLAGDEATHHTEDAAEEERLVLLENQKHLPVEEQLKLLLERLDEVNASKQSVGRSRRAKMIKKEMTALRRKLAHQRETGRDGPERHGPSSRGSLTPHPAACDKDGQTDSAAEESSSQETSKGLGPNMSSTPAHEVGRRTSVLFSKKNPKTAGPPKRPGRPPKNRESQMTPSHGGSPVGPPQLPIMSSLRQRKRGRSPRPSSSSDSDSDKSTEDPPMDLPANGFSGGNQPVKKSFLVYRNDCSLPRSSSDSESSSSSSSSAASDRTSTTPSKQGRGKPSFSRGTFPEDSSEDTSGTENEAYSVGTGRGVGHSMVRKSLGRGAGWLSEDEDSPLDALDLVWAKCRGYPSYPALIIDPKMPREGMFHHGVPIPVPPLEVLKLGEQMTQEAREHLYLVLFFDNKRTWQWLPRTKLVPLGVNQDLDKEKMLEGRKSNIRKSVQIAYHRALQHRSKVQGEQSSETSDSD

NDR2, sequence (Q9Y2H1 whole entry): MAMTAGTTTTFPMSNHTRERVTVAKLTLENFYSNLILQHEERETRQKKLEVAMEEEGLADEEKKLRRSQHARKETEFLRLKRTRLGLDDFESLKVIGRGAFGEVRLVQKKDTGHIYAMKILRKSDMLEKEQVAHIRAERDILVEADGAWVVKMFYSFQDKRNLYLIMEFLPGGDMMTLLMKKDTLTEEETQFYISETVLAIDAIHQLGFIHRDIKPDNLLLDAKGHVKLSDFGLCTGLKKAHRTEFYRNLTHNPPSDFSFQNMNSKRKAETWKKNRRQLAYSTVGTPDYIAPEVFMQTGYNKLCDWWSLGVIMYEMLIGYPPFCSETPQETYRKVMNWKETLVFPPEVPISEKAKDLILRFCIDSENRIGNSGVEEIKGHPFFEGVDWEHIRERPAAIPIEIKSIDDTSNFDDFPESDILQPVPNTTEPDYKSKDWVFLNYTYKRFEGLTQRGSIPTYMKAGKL
PCTAIRE1, sequence (Q00536 whole entry): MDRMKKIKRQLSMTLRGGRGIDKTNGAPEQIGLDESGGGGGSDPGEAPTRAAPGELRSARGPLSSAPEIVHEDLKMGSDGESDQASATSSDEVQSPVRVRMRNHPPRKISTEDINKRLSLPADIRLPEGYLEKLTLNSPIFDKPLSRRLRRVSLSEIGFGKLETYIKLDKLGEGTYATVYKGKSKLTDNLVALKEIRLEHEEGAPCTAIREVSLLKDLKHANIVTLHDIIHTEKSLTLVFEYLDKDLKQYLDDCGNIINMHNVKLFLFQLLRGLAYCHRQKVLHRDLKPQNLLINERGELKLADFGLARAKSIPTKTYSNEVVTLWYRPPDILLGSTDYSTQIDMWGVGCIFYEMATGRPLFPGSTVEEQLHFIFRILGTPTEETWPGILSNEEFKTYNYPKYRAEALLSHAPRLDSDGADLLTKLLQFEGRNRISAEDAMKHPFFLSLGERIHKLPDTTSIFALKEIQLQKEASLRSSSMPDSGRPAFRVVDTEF
OSR1, sequence (O95747 whole entry): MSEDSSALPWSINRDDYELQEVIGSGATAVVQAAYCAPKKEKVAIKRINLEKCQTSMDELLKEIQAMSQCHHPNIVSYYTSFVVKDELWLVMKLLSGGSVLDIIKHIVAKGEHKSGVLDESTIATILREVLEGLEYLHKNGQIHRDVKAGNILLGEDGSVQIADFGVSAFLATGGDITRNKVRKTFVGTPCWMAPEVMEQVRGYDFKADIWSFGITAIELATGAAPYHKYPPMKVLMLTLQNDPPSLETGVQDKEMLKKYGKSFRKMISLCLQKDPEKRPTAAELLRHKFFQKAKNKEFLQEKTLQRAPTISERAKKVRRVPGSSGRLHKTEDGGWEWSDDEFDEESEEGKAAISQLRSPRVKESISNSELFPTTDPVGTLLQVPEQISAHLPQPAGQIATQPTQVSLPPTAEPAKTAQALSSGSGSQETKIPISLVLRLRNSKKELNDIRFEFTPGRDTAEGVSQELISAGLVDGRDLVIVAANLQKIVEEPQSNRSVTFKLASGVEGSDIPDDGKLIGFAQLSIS

CNc1ncc2cc(-c3ccc(-c4cccc(C)n4)cc3Cl)c(=O)n(CC3OCC(N)CO3)c2n1 (stereo not shown) [compound 2, G-5555]
dTm G-5555 (2) (NDR2; 10 µM, binder): 3.5 °C
dTm G-5555 (2) (PCTAIRE1; 10 µM, binder): 1.3 °C
dTm G-5555 (2) (OSR1; 10 µM, binder): 0.2 °C
dTm G-5555 (2) (GAK; 10 µM, binder): 6.1 °C
dTm G-5555 (2) (BRPF1; 10 µM, binder): 0.8 °C

CNc1ncc2cc(-c3cc(Br)ccc3Cl)c(=O)n(CCCCN)c2n1 [compound 6, 8-(4-Aminobutyl)-6-(5-bromo-2-chlorophenyl)-2-(methylamino)pyrido[2,3-d]pyrimidin-7(8H)-one]
ΔTm at 10 µM (NDR2; read-out: dTm 6): 0.7 °C
ΔTm at 10 µM (PCTAIRE1; read-out: dTm 6): 1.1 °C
ΔTm at 10 µM (OSR1; read-out: dTm 6): 0.3 °C
ΔTm at 10 µM (GAK; read-out: dTm 6): 4.1 °C
ΔTm at 10 µM (BRPF1; read-out: dTm 6): 0.3 °C

CNc1ncc2cc(-c3cc(F)ccc3F)c(=O)n(CCCCN)c2n1 [compound 5, 8-(4-Aminobutyl)-6-(2,5-difluorophenyl)-2-(methylamino)pyrido[2,3-d]pyrimidin-7(8H)-one]
ΔTm at 10 µM (NDR2; read-out: dTm MR22 (5)): 1.6 °C
ΔTm at 10 µM (PCTAIRE1; read-out: dTm MR22 (5)): 0.3 °C
ΔTm at 10 µM (OSR1; read-out: dTm MR22 (5)): -0.8 °C
ΔTm at 10 µM (GAK; read-out: dTm MR22 (5)): 5.4 °C
ΔTm at 10 µM (BRPF1; read-out: dTm MR22 (5)): -1 °C

CNc1ncc2cc(-c3ccccc3Cl)c(=O)n(CCCCN)c2n1 [compound 4, 8-(4-Aminobutyl)-6-(2-chlorophenyl)-2-(methylamino)pyrido[2,3-d]pyrimidin-7(8H)-one]
ΔTm at 10 µM (NDR2; read-out: dTm MR21 (4)): 0.5 °C
ΔTm at 10 µM (PCTAIRE1; read-out: dTm MR21 (4)): 1.8 °C
ΔTm at 10 µM (OSR1; read-out: dTm MR21 (4)): 1.3 °C
ΔTm at 10 µM (GAK; read-out: dTm MR21 (4)): 6.6 °C
ΔTm at 10 µM (BRPF1; read-out: dTm MR21 (4)): 0.7 °C

CNc1ncc2cc(-c3cc(Br)ccc3Cl)c(=O)n(C[C@H]3OC[C@H](N)CO3)c2n1 [compound 7, 8-(((2r,5r)-5-Amino-1,3-dioxan-2-yl)methyl)-6-(5-bromo-2-chlorophenyl)-2-(methylamino)pyrido[2,3-d]pyrimidin-7(8H)-one]
ΔTm at 10 µM (NDR2; read-out: dTm 7): -0.1 °C
ΔTm at 10 µM (PCTAIRE1; read-out: dTm 7): 0.1 °C
ΔTm at 10 µM (OSR1; read-out: dTm 7): 0 °C
ΔTm at 10 µM (GAK; read-out: dTm 7): 2.6 °C
ΔTm at 10 µM (BRPF1; read-out: dTm 7): -0.7 °C
